This note sets out measurements from patent US10988477B2 (Merck Patent GmbH, priority 2018, dated 2021).

One assay has as its target GCN2 kinase (Homo sapiens, UniProt Q9P2K8). As to the kind of experiment: GCN2 enzyme inhibition assay (Transcreener ADP2 fluorescence polarization). Conditions: compounds of Formula II; 280 μM ATP, 4 nM GCN2 kinase. Type of assay: biochemical. The procedure, abridged:
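ADP formation read by Transcreener FP after a 1 h, 25 °C kinase reaction containing 280 μM ATP, 200 μM (RS)7 substrate and 4 nM GCN2, pH 7.5 Tris buffer. Compounds (0–8 μM final) were added 10 min before ATP. Percent inhibition gave IC50 and apparent Ki via tight-binding fit.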

The target of assay [1] is intracellular GCN2 (phosphorylation of the GCN2 substrate eIF2α) (Homo sapiens, UniProt Q9P2K8). As to the kind of experiment: GCN2 cellular inhibition assay (AlphaScreen SureFire P-eIF2α Ser51, borrelidin-treated U2OS cells). Type of assay: cell-based. The following applies: compounds of Formula II; biomarker assay, phosphorylated eIF2α Ser51 in borrelidin-treated U2OS cells. The procedure, abridged: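 Read-out: AlphaScreen SureFire phospho-eIF2α (Ser51) signal in U2OS lysates. Cells get 4-fold compound dilutions (top 40 μM final) plus 10 μM borrelidin, 1 h, 37 °C. Percent inhibition is relative to borrelidin-alone controls.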
In general terms: Alpha assays give light when donor and acceptor beads are brought close together.

Sequence of intracellular GCN2 (phosphorylation of the GCN2 substrate eIF2α) (Q9P2K8 whole entry): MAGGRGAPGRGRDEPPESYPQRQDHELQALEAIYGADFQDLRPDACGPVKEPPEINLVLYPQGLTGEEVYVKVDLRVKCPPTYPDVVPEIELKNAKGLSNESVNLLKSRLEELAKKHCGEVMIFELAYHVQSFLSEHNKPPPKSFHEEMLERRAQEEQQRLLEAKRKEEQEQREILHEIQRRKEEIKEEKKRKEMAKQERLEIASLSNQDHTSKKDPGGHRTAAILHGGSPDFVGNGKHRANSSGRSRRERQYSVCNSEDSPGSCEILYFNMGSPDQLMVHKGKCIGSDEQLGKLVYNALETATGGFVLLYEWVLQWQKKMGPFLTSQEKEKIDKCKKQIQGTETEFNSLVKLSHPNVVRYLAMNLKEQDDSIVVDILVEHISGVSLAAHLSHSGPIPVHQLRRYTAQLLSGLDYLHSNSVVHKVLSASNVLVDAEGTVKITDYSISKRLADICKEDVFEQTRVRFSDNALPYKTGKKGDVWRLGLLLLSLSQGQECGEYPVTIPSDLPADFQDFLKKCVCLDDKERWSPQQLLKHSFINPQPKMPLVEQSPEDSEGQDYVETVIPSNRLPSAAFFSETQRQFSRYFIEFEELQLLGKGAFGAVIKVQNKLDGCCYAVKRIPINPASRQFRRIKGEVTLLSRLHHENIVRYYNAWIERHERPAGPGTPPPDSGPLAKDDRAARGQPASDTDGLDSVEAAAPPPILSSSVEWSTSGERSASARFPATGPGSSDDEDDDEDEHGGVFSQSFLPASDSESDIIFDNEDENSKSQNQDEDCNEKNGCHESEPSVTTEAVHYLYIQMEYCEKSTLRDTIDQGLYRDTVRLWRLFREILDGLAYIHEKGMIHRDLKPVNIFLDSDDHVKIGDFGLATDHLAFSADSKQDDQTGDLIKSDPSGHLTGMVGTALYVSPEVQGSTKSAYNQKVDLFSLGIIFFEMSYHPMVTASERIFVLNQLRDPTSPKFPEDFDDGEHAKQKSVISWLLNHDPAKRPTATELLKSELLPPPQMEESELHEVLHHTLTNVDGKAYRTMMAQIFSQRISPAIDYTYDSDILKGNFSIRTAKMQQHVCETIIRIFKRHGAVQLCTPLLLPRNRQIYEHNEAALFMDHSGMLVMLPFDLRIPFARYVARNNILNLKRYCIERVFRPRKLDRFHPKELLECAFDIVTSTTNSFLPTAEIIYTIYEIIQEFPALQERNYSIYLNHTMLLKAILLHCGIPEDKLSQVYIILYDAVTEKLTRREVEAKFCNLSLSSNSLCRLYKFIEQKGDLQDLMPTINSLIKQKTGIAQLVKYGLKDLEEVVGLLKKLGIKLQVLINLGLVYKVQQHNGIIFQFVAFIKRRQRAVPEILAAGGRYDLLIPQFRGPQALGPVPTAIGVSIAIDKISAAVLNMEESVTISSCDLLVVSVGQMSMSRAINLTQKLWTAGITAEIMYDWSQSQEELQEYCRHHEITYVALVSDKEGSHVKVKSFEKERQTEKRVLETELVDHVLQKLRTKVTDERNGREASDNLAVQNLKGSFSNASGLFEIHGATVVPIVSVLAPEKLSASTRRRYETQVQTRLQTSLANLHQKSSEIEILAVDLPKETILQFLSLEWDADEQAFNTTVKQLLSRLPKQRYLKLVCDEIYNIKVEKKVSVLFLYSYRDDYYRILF
Sequence of GCN2 kinase (Q9P2K8 whole entry): as above

`CS(=O)(=O)NC[C@@H]1CN(c2cc(-c3cnc4ccc(C(F)F)nn34)ccn2)CCO1` [II-121, N-[[(2S)-4-[4-[6-(Difluoromethyl)imidazo[1,2-b]pyridazin-3-yl]-2-pyridyl]morpholin-2-yl]methyl]methanesulfonamide]: the inhibitory constant (Ki) at GCN2 kinase was below 10 nM. In assay [1], the half-inhibitory concentration (IC50) is below 500 nM.

Take `CS(=O)(=O)NCC1CCCN(c2cc(-c3cnc4ccc(C(F)F)nn34)cc(F)n2)C1` (centres unmarked) [II-122, N-((1-(4-(6-(Difluoromethyl)imidazo[1,2-b]pyridazin-3-yl)-6-fluoropyridin-2-yl)piperidin-3-yl)methyl)methanesulfonamide]: the Ki at GCN2 kinase was below 10 nM. This molecule also had a 50% inhibitory concentration (IC50) in assay [1] of 500 to 5000 nM.

At GCN2 kinase, `CS(=O)(=O)NCC1CCN(c2cc(-c3cnc4ccc(C(F)F)nn34)ccn2)C1` (centres unmarked) [II-123, N-((1-(4-(6-(Difluoromethyl)imidazo[1,2-b]pyridazin-3-yl)pyridin-2-yl)pyrrolidin-3-yl)methyl)methanesulfonamide] gave an inhibitory constant (Ki) of 10 to 1000 nM. The IC50 in assay [1] fell in the range of 500 to 5000 nM.

Regarding `CS(=O)(=O)NOC1CCCN(c2cc(-c3cnc4ccc(C(F)F)nn34)ccn2)C1` (centres unmarked) [II-124, N-((1-(4-(6-(Difluoromethyl)imidazo[1,2-b]pyridazin-3-yl)pyridin-2-yl)piperidin-3-yl)oxy)methanesulfonamide], the Ki at GCN2 kinase is below 10 nM. This molecule also displayed a concentration for half-maximal inhibition (IC50) in assay [1] of 500 to 5000 nM.

On to `CS(=O)(=O)NCC1CCCN(c2ccnc(-c3cnc4ccc(C(F)F)nn34)c2)C1` (centres unmarked) [II-125, N-((1-(2-(6-(Difluoromethyl)imidazo[1,2-b]pyridazin-3-yl)pyridin-4-yl)piperidin-3-yl)methyl)methanesulfonamide], for which the Ki on GCN2 kinase is below 10 nM. This molecule also showed a half-maximal inhibitory concentration (IC50) in assay [1] below 500 nM.

As for `CS(=O)(=O)N1CC2(CN(c3cc(-c4cnc5ccc(C(F)F)nn45)ccn3)CCO2)C1` [II-126, 8-(4-(6-(Difluoromethyl)imidazo[1,2-b]pyridazin-3-yl)pyridin-2-yl)-2-(methylsulfonyl)-5-oxa-2,8-diazaspiro[3.5]nonane], the Ki at GCN2 kinase lay in the range of 10 to 1000 nM. The IC50 in assay [1] is above 5000 nM.

On GCN2 kinase, `CC(=O)N1CCN(c2ccnc(-c3cnc4ccc(C(F)F)nn34)c2)CC1` [II-127, 1-(4-(2-(6-(Difluoromethyl)imidazo[1,2-b]pyridazin-3-yl)pyridin-4-yl)piperazin-1-yl)ethanone] yielded an inhibitory constant (Ki) of 10 to 1000 nM. The molecule also displayed an IC50 in assay [1] of 500 to 5000 nM.

`CS(=O)(=O)CCC1CCCN(c2cc(-c3cnc4ccc(C(F)F)nn34)ccn2)C1` (centres unmarked) [II-128, 6-(Difluoromethyl)-3-(2-(3-(2-(methylsulfonyl)ethyl)piperidin-1-yl)pyridin-4-yl)imidazo[1,2-b]pyridazine] registered an inhibition constant (Ki) at GCN2 kinase of 10 to 1000 nM. The same molecule returned an IC50 in assay [1] of 500 to 5000 nM.

Take `Cc1cc(-c2cnc3ccc(C(F)F)nn23)cc(N2CCCC(CNS(C)(=O)=O)C2)n1` (centres unmarked) [II-129, N-((1-(4-(6-(Difluoromethyl)imidazo[1,2-b]pyridazin-3-yl)-6-methylpyridin-2-yl)piperidin-3-yl)methyl)methanesulfonamide]: the Ki at GCN2 kinase is below 10 nM. Besides, in assay [1], the IC50 was 500 to 5000 nM.

As to `CS(=O)(=O)NCC1CCCN(c2cc(-c3cnc4ccc(C(F)F)nn34)cc(C#N)n2)C1` (centres unmarked) [II-130, N-((1-(6-Cyano-4-(6-(difluoromethyl)imidazo[1,2-b]pyridazin-3-yl)pyridin-2-yl)piperidin-3-yl)methyl)methanesulfonamide], the Ki at GCN2 kinase was 10 to 1000 nM. The molecule also yielded an IC50 in assay [1] above 5000 nM.

On GCN2 kinase, `CS(=O)(=O)N(O)CC1CN(c2cc(-c3cnc4ccc(C(F)F)nn34)ccn2)CCC1(F)F` (centres unmarked) [II-131, N-((1-(4-(6-(Difluoromethyl)imidazo[1,2-b]pyridazin-3-yl)pyridin-2-yl)-4,4-difluoropiperidin-3-yl)methyl)-N-hydroxymethanesulfonamide] registered an inhibition constant Ki below 10 nM. Moreover, in assay [1], the IC50 is below 500 nM.

`CC(NS(C)(=O)=O)C1CCCN(c2cc(-c3cnc4ccc(C(F)F)nn34)ccn2)C1` (centres unmarked) [II-133, N-(1-(1-(4-(6-(Difluoromethyl)imidazo[1,2-b]pyridazin-3-yl)pyridin-2-yl)piperidin-3-yl)ethyl)methanesulfonamide] showed an inhibition constant Ki on GCN2 kinase below 10 nM. For the same molecule, the 50% inhibitory concentration (IC50) in assay [1] was 500 to 5000 nM.

The molecule `CC(NS(C)(=O)=O)C1CCCN(c2cc(-c3cnc4ccc(C(F)F)nn34)ccn2)C1` (centres unmarked) [II-134, N-(1-(1-(4-(6-(Difluoromethyl)imidazo[1,2-b]pyridazin-3-yl)pyridin-2-yl)piperidin-3-yl)ethyl)methanesulfonamide] gave a Ki on GCN2 kinase of 10 to 1000 nM. Further, the IC50 in assay [1] fell in the range of 500 to 5000 nM.

As to `NC(=O)C1CN(c2cc(-c3cnc4ccc(C(F)F)nn34)ccn2)CCO1` (centres unmarked) [II-135, 4-(4-(6-(Difluoromethyl)imidazo[1,2-b]pyridazin-3-yl)pyridin-2-yl)morpholine-2-carboxamide], the Ki at GCN2 kinase fell in the range of 10 to 1000 nM. Further, in assay [1], the IC50 was in the range of 500 to 5000 nM.

The molecule `CS(=O)(=O)N1CC2(CCCN(c3cc(-c4cnc5ccc(C(F)F)nn45)ccn3)C2)C1` [II-136, 6-(Difluoromethyl)-3-(2-(2-(methylsulfonyl)-2,6-diazaspiro[3.5]nonan-6-yl)pyridin-4-yl)imidazo[1,2-b]pyridazine] gave a Ki on GCN2 kinase below 10 nM. This molecule had an IC50 in assay [1] below 500 nM.

At GCN2 kinase, `CS(=O)(=O)NCC1(O)CCN(c2cc(-c3cnc4ccc(C(F)F)nn34)ncn2)C1` (centres unmarked) [II-137, N-((1-(6-(6-(Difluoromethyl)imidazo[1,2-b]pyridazin-3-yl)pyrimidin-4-yl)-3-hydroxypyrrolidin-3-yl)methyl)methanesulfonamide] came in with a Ki of 10 to 1000 nM. This molecule returned an IC50 in assay [1] above 5000 nM.

As for `CS(=N)(=O)CC1CCCN(c2cc(-c3cnc4ccc(C(F)F)nn34)ccn2)C1` (centres unmarked) [II-138, ((1-(4-(6-(Difluoromethyl)imidazo[1,2-b]pyridazin-3-yl)pyridin-2-yl)piperidin-3-yl)methyl)(imino)(methyl)-λ^6-sulfanone], at GCN2 kinase, the Ki was 10 to 1000 nM. This molecule also yielded a 50% inhibitory concentration (IC50) in assay [1] of 500 to 5000 nM.

At GCN2 kinase, `CS(=O)(=O)NCC1(F)CCCN(c2cc(-c3cnc4ccc(C(F)F)nn34)ccn2)C1` (centres unmarked) [II-139, N-((1-(4-(6-(Difluoromethyl)imidazo[1,2-b]pyridazin-3-yl)pyridin-2-yl)-3-fluoropiperidin-3-yl)methyl)methanesulfonamide] registered an inhibition constant Ki of 10 to 1000 nM. The same molecule came in with a 50% inhibitory concentration (IC50) in assay [1] of 500 to 5000 nM.

On GCN2 kinase, `CS(=O)(=O)NCC1CN(c2cc(-c3cnc4ccc(C(F)F)nn34)ncn2)CC1O` (centres unmarked) [II-140, N-((1-(6-(6-(Difluoromethyl)imidazo[1,2-b]pyridazin-3-yl)pyrimidin-4-yl)-4-hydroxypyrrolidin-3-yl)methyl)methanesulfonamide] had an inhibitory constant (Ki) of 10 to 1000 nM. Also, the half-inhibitory concentration (IC50) in assay [1] is above 5000 nM.

Turning to `CS(=O)(=O)NCC1CCCN(c2cc(-c3cnc4ccc(C(F)F)nn34)cc(O)n2)C1` (centres unmarked) [II-141, N-((1-(4-(6-(difluoromethyl)imidazo[1,2-b]pyridazin-3-yl)-6-oxo-1,6-dihydropyridin-2-yl)piperidin-3-yl)methyl)methanesulfonamide], the inhibition constant (Ki) at GCN2 kinase was below 10 nM. Moreover, the concentration for half-maximal inhibition (IC50) in assay [1] was 500 to 5000 nM.

For the molecule `COc1cc(-c2cnc3ccc(C(F)F)nn23)cc(N2CCCC(CNS(C)(=O)=O)C2)n1` (centres unmarked) [II-142, N-((1-(4-(6-(Difluoromethyl)imidazo[1,2-b]pyridazin-3-yl)-6-methoxypyridin-2-yl)piperidin-3-yl)methyl)methanesulfonamide], on GCN2 kinase, the inhibition constant (Ki) is below 10 nM. In addition, the IC50 in assay [1] was in the range of 500 to 5000 nM.

`NC(=O)[C@H]1CCCN(c2cc(-c3cnc4ccc(C(F)F)nn34)ccn2)C1` [II-143, (S′)-1-(4-(6-(Difluoromethyl)imidazo[1,2-b]pyridazin-3-yl)pyridin-2-yl)piperidine-3-carboxamide] registered an inhibition constant (Ki) on GCN2 kinase below 10 nM. Further, the concentration for half-maximal inhibition (IC50) in assay [1] was below 500 nM.

Consider `NS(=O)(=O)CC1CCCN(c2cc(-c3cnc4ccc(C(F)F)nn34)ccn2)C1` (centres unmarked) [II-144, (1-(4-(6-(Difluoromethyl)imidazo[1,2-b]pyridazin-3-yl)pyridin-2-yl)piperidin-3-yl)methanesulfonamide], for which the Ki on GCN2 kinase is 10 to 1000 nM. Besides, the IC50 in assay [1] was in the range of 500 to 5000 nM.

In turn, `NC(=O)CC1CCCN(c2cc(-c3cnc4ccc(C(F)F)nn34)ccn2)C1` (centres unmarked) [II-145, 2-(1-(4-(6-(Difluoromethyl)imidazo[1,2-b]pyridazin-3-yl)pyridin-2-yl)piperidin-3-yl)acetamide] had a Ki on GCN2 kinase of 10 to 1000 nM. Also, the IC50 in assay [1] was 500 to 5000 nM.

At GCN2 kinase, `OCCC1CN(c2cc(-c3cnc4ccc(C(F)F)nn34)ccn2)CCO1` (centres unmarked) [II-146, 2-(4-(4-(6-(Difluoromethyl)imidazo[1,2-b]pyridazin-3-yl)pyridin-2-yl)morpholin-2-yl)ethanol] registered a Ki of 10 to 1000 nM. Besides, the IC50 in assay [1] lay within 500 to 5000 nM.

With `FC(F)c1ccc2ncc(-c3ccnc(N4CCOC(c5cn[nH]c5)C4)c3)n2n1` (centres unmarked) [II-147, 4-(4-(6-(Difluoromethyl)imidazo[1,2-b]pyridazin-3-yl)pyridin-2-yl)-2-(1H-pyrazol-4-yl)morpholine], the Ki on GCN2 kinase lay within 10 to 1000 nM. This molecule gave a concentration for half-maximal inhibition (IC50) in assay [1] below 500 nM.

`CC1(C)CN(c2cc(-c3cnc4ccc(C(F)F)nn34)ccn2)C[C@H](CNS(C)(=O)=O)O1` [II-148, (R)—N-((4-(4-(6-(Difluoromethyl)imidazo[1,2-b]pyridazin-3-yl)pyridin-2-yl)-6,6-dimethylmorpholin-2-yl)methyl)methanesulfonamide]: the inhibition constant (Ki) at GCN2 kinase was below 10 nM. For the same molecule, in assay [1], the IC50 was below 500 nM.

Turning to `CS(=O)(=O)NCC1CN(c2cc(-c3cnc4ccc(C(F)F)nn34)ccn2)CCO1` (centres unmarked) [II-149, N-((4-(4-(6-(Difluoromethyl)imidazo[1,2-b]pyridazin-3-yl)pyridin-2-yl)morpholin-2-yl)methyl)methanesulfonamide], the Ki on GCN2 kinase is below 10 nM. The same molecule returned a half-inhibitory concentration (IC50) in assay [1] below 500 nM.

By Ki is commonly meant a measure of affinity in units of concentration, obtained from inhibition or displacement. Read a low Ki as higher affinity. In general, IC50 refers to the concentration needed to halve the response being measured.
